From ChEMBL document CHEMBL1687836, “Oral hexadecyloxypropyl-cidofovir therapy in pregnant guinea pigs improves outcome in the congenital model of cytomegalovirus infection” (Antimicrob Agents Chemother, 2011) come the findings set out here.

Molecules are shown by their SMILES. The source made the active and inactive calls. The calls are words filed in the database; no cut-off is given here.

For series [1], the system named is Caviid betaherpesvirus 2. Kind of series: Antiviral activity against Guinea pig cytomegalovirus strain 22122 infected guinea pig CCL158 cells assessed as plaque reduction measured after 10 days by plaque reduction assay. Format: functional, organism-based. The conditions noted are these: Caviid betaherpesvirus 2, CCL158, 240 h. A general note: Plaques are areas of infected cells; plaque reduction assays count them against a control.

A short description of series [2]: Cytotoxicity against guinea pig CCL158 cells after 10 days by crystal violet staining. The class given is cell-based, Cavia porcellus.
Series [3] can be described thus: Selectivity index, ratio of CC50 for guinea pig CCL158 cells to IC50 for Guinea pig cytomegalovirus strain 22122. The class given is functional.
Series [4] concerns Caviid betaherpesvirus 2. The experiment in a line: Antiviral activity against Guinea pig cytomegalovirus strain 22122 infected in second and third trimesters of pregnant Hartley guinea pig assessed as pregnancy outcome measured as live-born pups at 20 mg/kg, po once at 24 hrs post infection and once 7 days post infection. The class given is functional.
The subject of series [5] is Caviid betaherpesvirus 2. The experiment in a line: Antiviral activity against Guinea pig cytomegalovirus strain 22122 infected in second and third trimesters of pregnant Hartley guinea pig assessed as reduction in dam blood viral log10 genome copies/ug of DNA at 20 mg/kg, po once at 24 hrs post infection and once at 7 days post infection (reference value: 3.22 +/- 0.2 log10 genome copies/ug DNA). The class given is functional.

The subject of series [6] is Caviid betaherpesvirus 2. Kind of series: Antiviral activity against Guinea pig cytomegalovirus strain 22122 infected in second and third trimesters of pregnant Hartley guinea pig assessed as reduction in viral DNA level in dam spleen at 20 mg/kg, po once at 24 hrs post infection and once at 7 days post infection relative to dam control. The class given is functional.

For series [7], the system named is Caviid betaherpesvirus 2. Kind of series: Antiviral activity against Guinea pig cytomegalovirus strain 22122 infected in second and third trimesters of pregnant Hartley guinea pig assessed as reduction in viral DNA level in dam liver at 20 mg/kg, po once at 24 hrs post infection and once at 7 days post infection relative to dam control. The class given is functional.

Series [8] has as its system Caviid betaherpesvirus 2. The experiment in a line: Antiviral activity against Guinea pig cytomegalovirus strain 22122 infected in second and third trimesters of pregnant Hartley guinea pig assessed as reduction in viral DNA level in pup spleen at 20 mg/kg, po once at 24 hrs post infection and once at 7 days post infection relative to control pup. The class given is functional.

In series [9] the test system is Caviid betaherpesvirus 2. Kind of series: Antiviral activity against Guinea pig cytomegalovirus strain 22122 infected in second and third trimesters of pregnant Hartley guinea pig assessed as reduction in viral DNA level in pup liver at 20 mg/kg, po once at 24 hrs post infection and once at 7 days post infection relative to control pup. Format: functional.
In series [10] the test system is Caviid betaherpesvirus 2. The experiment in a line: Antiviral activity against Guinea pig cytomegalovirus strain 22122 infected in second and third trimesters of pregnant Hartley guinea pig assessed as pup spleen containing detectable viral DNA at 20 mg/kg, po once at 24 hrs post infection and once at 7 days post infection (reference value: 44%). Format: functional.

The test system of series [11] is Caviid betaherpesvirus 2. Kind of series: Antiviral activity against Guinea pig cytomegalovirus strain 22122 infected in second and third trimesters of pregnant Hartley guinea pig assessed as pup liver containing detectable viral DNA at 20 mg/kg, po once at 24 hrs post infection and once at 7 days post infection (reference value: 73%). Format: functional.
In series [12] the test system is Caviid betaherpesvirus 2. The experiment in a line: Antiviral activity against Guinea pig cytomegalovirus strain 22122 infected in second and third trimesters of pregnant Hartley guinea pig assessed as increase in pup survival at 20 mg/kg, po once at 24 hrs post infection and once at 7 days post infection. Format: functional, organism-based. More on the design: dose 20 mg/kg. Particulars: Guinea pig cytomegalovirus (strain 22122 / ATCC VR682) (GPCMV).

Series [13] relates to Caviid betaherpesvirus 2. The experiment in a line: Antiviral activity against Guinea pig cytomegalovirus strain 22122 infected in second and third trimesters of pregnant Hartley guinea pig assessed as reduction in pups with detectable viral DNA at 20 mg/kg, po once at 24 hrs post infection and once at 7 days post infection. Particulars: Guinea pig cytomegalovirus (strain 22122 / ATCC VR682) (GPCMV). Format: functional, organism-based. Also noted: dose 20 mg/kg.

For series [14], the system named is Caviid betaherpesvirus 2. The experiment in a line: Antiviral activity against Guinea pig cytomegalovirus strain 22122 infected in second and third trimesters of pregnant Hartley guinea pig assessed as pregnancy outcome measured as live-born pups at 4 mg/kg, po treatment started at 24 hrs post infection for 5 consecutive days (reference value: 62.5%). The class given is functional.

The subject of series [15] is Cavia porcellus. Kind of series: Toxicity in Guinea pig cytomegalovirus strain 22122 infected second and third trimesters of pregnant Hartley guinea pig assessed as decreased animal activity at 20 mg/kg, po once at 24 hrs post infection and once 7 days post infection. Particulars: in vivo. Also noted: dose 20 mg/kg, route oral. The class given is organism-based.
The subject of series [16] is Cavia porcellus. The experiment in a line: Toxicity in Guinea pig cytomegalovirus strain 22122 infected second and third trimesters of pregnant Hartley guinea pig assessed as animal weight loss at 20 mg/kg, po once at 24 hrs post infection and once 7 days post infection. The class given is organism-based. More on the design: dose 20 mg/kg, route oral. Particulars: in vivo.

The subject of series [17] is Cavia porcellus. Kind of series: Toxicity in Guinea pig cytomegalovirus strain 22122 infected second and third trimesters of pregnant Hartley guinea pig assessed as decreased animal activity at 4 mg/kg, po treatment started at 24 hrs post infection for 5 consecutive days. Format: organism-based. More on the design: dose 4 mg/kg, route oral. The conditions noted are these: in vivo.

In series [18] the test system is Cavia porcellus. Kind of series: Toxicity in Guinea pig cytomegalovirus strain 22122 infected second and third trimesters of pregnant Hartley guinea pig assessed as animal weight loss at 4 mg/kg, po treatment started at 24 hrs post infection for 5 consecutive days. Particulars: in vivo. Also noted: dose 4 mg/kg, route oral. The class given is organism-based.
In series [19] the test system is Cavia porcellus. Kind of series: Toxicity in Guinea pig cytomegalovirus strain 22122 infected second and third trimesters of pregnant Hartley guinea pig assessed as low birth weight pups at 20 mg/kg, po once at 24 hrs post infection and once 7 days post infection (reference value: 107 +/- 10 g). The class given is organism-based. Also noted: dose 20 mg/kg, route oral. Particulars: in vivo.

Series [20] has as its system Cavia porcellus. Kind of series: Toxicity in Guinea pig cytomegalovirus strain 22122 infected second and third trimesters of pregnant Hartley guinea pig assessed as low birth weight pups at 4 mg/kg, po treatment started at 24 hrs post infection for 5 consecutive days (reference value: 107 +/- 10 g). The class given is organism-based. More on the design: dose 4 mg/kg, route oral. Particulars: in vivo.

Series [21] has as its system Cavia porcellus. Kind of series: Toxicity in Guinea pig cytomegalovirus strain 22122 infected second and third trimesters of pregnant Hartley guinea pig assessed as adverse effect on complete blood count at 4 mg/kg, po treatment started at 24 hrs post infection for 9 consecutive days. The class given is organism-based. Also noted: dose 4 mg/kg, route oral. Particulars: in vivo.

In series [22] the test system is Cavia porcellus. The experiment in a line: Toxicity in Guinea pig cytomegalovirus strain 22122 infected second and third trimesters of pregnant Hartley guinea pig assessed as adverse effect on complete blood count in new born pups at 4 mg/kg, po treatment started at 24 hrs post infection for 9 consecutive days. Format: organism-based. More on the design: dose 4 mg/kg, route oral. Particulars: in vivo.

For orientation: EC50 means the concentration needed to bring the measured effect to its halfway point. As usually defined, the CC50 is the concentration at which the toxic effect on the cells reaches its halfway point. Low values mean harm at low concentration, high ones better tolerance by the cells. For the compound `CCCCCCCCCCCCCCCCOCCCOP(=O)(O)CO[C@H](CO)Cn1ccc(N)nc1=O` [BRINCIDOFOVIR], the half-maximal effective concentration (EC50) in series [1] came to 4 nM. Moreover, the CC50 at 240 h in series [2] was > 100000 nM. In addition, in series [3], the “Selectivity Index” value is given as >25000. Besides, the Activity is 93.8% in [4]; 2.88 in series [5]; 25% in series [10]; 57% in [11]; 100% in [14]; “Non-toxic” in series [15]. For the same compound, the Activity entry in series [16] was “Non-toxic”; in series [17], “Non-toxic”; in [18] it was “Non-toxic”; in [19], 103 g; in series [20], 103 g; in series [21], “Non-toxic”. Also, the Activity result in series [22] is listed as “Non-toxic”. Moreover, the “fold change (FC)” value in series [6] was 5; in series [7], 6.5; in [8], 6; in [9] it was 10.5. Besides, the result in [12] and in series [13] was Active.
